Results as given in patent US20170042890A1, “METHODS OF REDUCING DECLINE IN VITAL CAPACITY” (Cytokinetics, Inc., priority 2014, published 2017).

System: patients with ALS
Assay: BENEFIT-ALS clinical trial: treatment-emergent adverse events, discontinuations, deaths
Format: in vivo, human
Experimental: BENEFIT-ALS was a multi-national, randomized, stratified, double-blind, placebo-controlled, parallel-group study of tirasemtiv in patients with ALS. The study consisted of a screening period, an open-label/lead-in period, and a double-blind treatment period. Following screening, eligible patients received open-label tirasemtiv, 125 mg BID, for 7 days. Patients who tolerated the 7-day lead-in period were randomized in a 1:1 ratio to tirasemtiv or placebo. Over the first 3 weeks of double-blind treatment, patients randomized to tirasemtiv had their TDD up-titrated as follows: 250 mg for 7 days, then 375 mg for 7 days, then 500 mg for 7 days. […] However, in such cases, dose escalation was re-attempted at least one additional time. The highest tolerable tirasemtiv dose for each individual patient was the dose that patient received for the remaining 9 weeks (i.e., the maximum tolerated dose [MTD] phase) of the study. Patients randomized to placebo underwent a corresponding dummy dose titration.
A total of 711 patients were enrolled in the study and began treatment with open-label tirasemtiv 125 mg BID. After the one-week open-label phase, 302 patients were randomized to placebo and 303 to tirasemtiv. Of these randomized patients, 269 in the placebo group and 204 in the tirasemtiv group completed the study, while 33 on placebo and 99 on tirasemtiv prematurely discontinued study drug, primarily due to AEs (12 patients on placebo 78 patients on tirasemtiv) and patient withdrawal of consent (7 placebo, 12 tirasemtiv).
Safety data presented were based on the safety analysis set, defined as all patients who received at least 1 dose of double-blind study drug. Of the 605 randomized patients, 596 (295 placebo, 301 tirasemtiv) received at least 1 dose of double-blind study drug and were included in the safety analysis set. Data for the primary and secondary efficacy endpoints were analyzed with the Modified FAS. This analysis set included all patients who received at least 1 dose of double-blind study drug and had at least 1 efficacy assessment during the double-blind treatment period, and excluded 156 patients who were randomized in blocks containing patients affected by a study drug assignment error in which 58 patients randomized to and treated with double-blind tirasemtiv were dispensed double-blind placebo instead. Based on these criteria, the Modified FAS consisted of 388 patients (210 placebo, 178 tirasemtiv).
An overview of treatment-emergent AEs during the double-blind phase of the study is provided in Table 4, and commonly reported AEs during the double-blind phase are summarized in Table 5. Serious AEs during the double-blind phase of the study were reported for 16 patients (5.4%) in the placebo group and 27 patients (9.0%) in the tirasemtiv group. By the Medical Dictionary for Regulatory […] (MedDRA) system organ class, the most commonly reported SAEs involved respiratory, thoracic and mediastinal disorders (2.0% placebo, 1.3% tirasemtiv). By MedDRA preferred term, AEs that were reported for more than 1 patient included the following: dysphagia (0.3% placebo, 0.7% tirasemtiv), pneumonia (0.3% placebo, 0.7% tirasemtiv), confusional state (0% placebo, 0.7% tirasemtiv), delirium (0% placebo, 0.7% tirasemtiv), and respiratory failure (1.0% placebo, […]).

[1] = double-blind phase, N=301, MedDRA preferred term
[2] = double-blind phase, N=301, NCI CTCAE
[3] = double-blind phase, N=301, listed as tirasemtiv
[4] = double-blind phase, reported for more than 1 patient

## C#Cc1cnc2nc(O)n(C(CC)CC)c2n1 [Tirasemtiv, 6-ethynyl-1-(pentan-3-yl)-1H-imidazo[4,5-b]pyrazin-2(3H)one]
71/97 of early terminations
  Patients who terminated treatment during the first 4 weeks of the double-blind phase: 73.2%
double-blind phase
  Confusional state leading to early discontinuation: 5.0%
  Dizziness leading to early discontinuation: 9.3%
  Fatigue leading to early discontinuation: 5.0%
  Gastrointestinal (GI) AEs, % of patients: 43.5%
  Gastrointestinal (GI) AEs, No. of patients: 131
  SAEs: respiratory, thoracic and mediastinal disorders (MedDRA system organ class): 1.3%
double-blind phase, N=301
  % of patients with AE leading to early termination: (25.9%)
  % of patients with SAE: (9.0%)
  Deaths, % of patients: (0.7%)
  Deaths, No. of patients: 2
  No. of patients with AE leading to early termination: 78
  No. of patients with SAE: 27
[1]
  AE Asthenia: 15.9%
  AE Confusional state: 11.0%
  AE Constipation: 6.3%
  AE Contusion: 7.3%
  AE Decreased appetite: 10.0%
  AE Diarrhea: 7.3%
  AE Dizziness: 50.8%
  AE Fatigue: 33.2%
  AE Headache: 17.9%
  AE Insomnia: 10.3%
  AE Muscle spasms: 15.0%
  AE Muscular weakness: 11.3%
  AE Nasopharyngitis: 6.3%
  AE Nausea: 21.9%
  AE Respiratory failure: 6.3%
  AE Somnolence: 13.0%
[2]
  % of patients with Grade 3 AE: (20.3%)
  % of patients with Grade 4 AE: (3.0%)
  % of patients with Grade 5 AE: (0.7%)
  No. of patients with Grade 3 AE: 61
  No. of patients with Grade 4 AE: 9
  No. of patients with Grade 5 AE: 2
[3]
  % of patients with SAE: 9.0%
  Deaths, % of patients: 0.7%
[4]
  Serious AE confusional state: 0.7%
  Serious AE delirium: 0.7%
  Serious AE dysphagia: 0.7%
  Serious AE pneumonia: 0.7%
  Serious AE respiratory failure: 0.5%
double-blind phase, safety set N=301
  No. of patients with any treatment-emergent AE: 291
Of 303 randomized to tirasemtiv
  Patients who prematurely discontinued study drug: 99
